# Measured values: patent US8475804B2 (priority 2009, dated 2013)
# Where a name gives a salt, the structure may show the parent alone. Read-outs that look alike come from different tables or passages of the source. Non-standard residues stand in square brackets, D forms with d. Residues, ends and D or L forms follow the SMILES beside them. *: point of attachment. Nva = CCC[C@H](N)C(=O)O; Cbz = O=C(OCc1ccccc1)*
# System: Ebola virus
# Assay: microbe, parasite or virus in culture
# Type: cell-based, Ebolavirus (EBOV)
# Conditions: for Emax: read-out: Max Effect
Compound,"Emax (Zaire ebolavirus, Vero) [%]","IC50 (Zaire ebolavirus, Vero) [µM]",other results
CN(C)C(=O)C(CCN1CCC(O)(c2ccc(Cl)cc2)CC1)(c1ccccc1)c1ccccc1 [Loperamide],–,–,Max Effect: 0.716
CCOC(=O)N1CCC(=C2c3ccc(Cl)cc3CCc3cccnc32)CC1 [Loratadine],37.1,–,–
CCC[C@@H](C=O)NC(=O)[C@H](CC(C)C)NC(=O)[C@H](CC(C)C)NC(=O)OCc1ccccc1 [MG115] (Cbz-Leu-Leu-[Nva]-aldehyde),–,–,Max Effect: 0.693; IC50 (read-out: IC50): 0.9 µM
CC(C)C[C@@H](C=O)NC(=O)[C@H](CC(C)C)NC(=O)[C@H](CC(C)C)NC(=O)OCc1ccccc1 [MG-132] (Cbz-Leu-Leu-Leu-aldehyde),90,< 0.6,–
CO[C@@H]1[C@@H](OC)[C@H](C)[C@@](O)(CC(=O)O)O[C@H]1[C@H](C)[C@H]1O[C@@]2(CC[C@@](C)([C@H]3CC[C@@](C)([C@@H]4O[C@@H]([C@H]5O[C@](C)(O)[C@H](C)C[C@@H]5C)C[C@@H]4O[C@@H]4C[C@H](OC)[C@@H](OC)[C@H](C)O4)O3)O2)C[C@H](O)[C@H]1C [Maduramicin NH4],45.2,–,–
O=S(=O)([O-])[O-].[Mg+2] [Magnesium Sulfate],–,–,Max Effect: 0.719; IC50 (read-out: IC50): 9.2 µM
COC(=O)Nc1nc2ccc(C(=O)c3ccccc3)cc2[nH]1 [Mebendazole],50,0.7,–
CN1C[C@H](CNC(=O)OCc2ccccc2)C[C@@H]2c3cccc4c3c(cn4C)C[C@H]21 [Metergoline],57.7,6.1,–
CN1CCC(CN2c3ccccc3Sc3ccccc32)C1 (centres unmarked) [Methdilazine Hydrochloride],51.9,7.1,–
COc1c(C)c2c(c(O)c1C/C=C(\C)CCC(=O)O)C(=O)OC2 [Mycophenolic Acid],80,< 1,–
Nc1ccc(C(=O)N[C@@H](CCC(=O)O)C(=O)O)cc1 [N-(4-Aminobenzoyl)-L-glutamic acid],85.5,9.7,–
COc1ccc(OC)c2c(=S)c3ccccc3[nH]c12 [NSC 625987],–,–,Max Effect: 0.418
O=C(Nc1ccc([N+](=O)[O-])cc1Cl)c1cc(Cl)ccc1O [Niclosamide],84.2,2.6,–
COC(=O)Nc1nc2ccc(C(=O)c3cccs3)cc2[nH]1 [Nocodazole],80,0.5,–
CCCCCCCCOC(=O)c1cc(O)c(O)c(O)c1 [Octyl Gallate],43.9,–,–
C=C1[C@@H](O)[C@@H]2O[C@]3(CC[C@H](/C=C/[C@@H](C)[C@@H]4CC(C)=C[C@@]5(O[C@H](C[C@@](C)(O)C(=O)O)CC[C@H]5O)O4)O3)CC[C@H]2O[C@@H]1[C@@H](O)C[C@H](C)[C@H]1O[C@@]2(CCCCO2)CC[C@H]1C [Okadaic Acid],48.8,–,–
CC[C@H]1/C=C/C=C/C[C@@H](C)[C@H](O)[C@@](C)(O)C(=O)[C@@H](C)[C@H](O)[C@@H](C)C(=O)[C@@H](C)[C@H](O)[C@@H](C)/C=C/C(=O)O[C@@H]2[C@H](C)[C@H](CC1)O[C@]1(CC[C@H](C)[C@H](C[C@@H](C)O)O1)[C@H]2C [Oligomycin],42.6,–,–
O=c1[nH]c2ccccc2n1CCCN1CCN(C(c2ccccc2)c2ccccc2)CC1 [Oxatomide],62.2,2.1,–
CCCOc1ccc2nc(NC(=O)OC)[nH]c2c1 [Oxibendazole],47.2,–,–
CCCCCCCCCC(=O)NC(CN1CCOCC1)C(O)c1ccccc1.Cl (centres unmarked) [PDMP Hydrochloride],–,–,Max Effect: 0.390

Compound,"Emax (Zaire ebolavirus, Vero) [%]","IC50 (Zaire ebolavirus, Vero) [µM]",other results
"O=C(OC[C@H]1O[C@@H](OC(=O)c2cc(O)c(O)c(O)c2)[C@H](OC(=O)c2cc(O)c(O)c(O)c2)[C@@H](OC(=O)c2cc(O)c(O)c(O)c2)[C@@H]1OC(=O)c1cc(O)c(O)c(O)c1)c1cc(O)c(O)c(O)c1 [PGG (1,2,3,4,6-b-O-Pentagalloyl glucose), 1,2,3,4,6-b-O-Pentagalloyl glucose]",–,–,Max Effect: 0.487; IC50 (read-out: IC50): 3.2 µM
O=C1Nc2ccc3ncsc3c2/C1=C/c1cnc[nH]1 [PKR inhibitor],–,–,Max Effect: 0.434
CCCCCCCCCCCCCC(=O)O[C@@H]1[C@@H](C)[C@@]2(O)[C@@H](C=C(CO)C[C@]3(O)C(=O)C(C)=C[C@@H]23)[C@@H]2C(C)(C)[C@]12OC(C)=O [PMA],–,–,Max Effect: 0.800; IC50 (read-out: IC50): < 0.18 µM
N=C(N)c1ccc(OCCCCCOc2ccc(C(=N)N)cc2)cc1 [Pentamidine],42.2,10.5,–
CCCN1C[C@H](CSC)C[C@@H]2c3cccc4[nH]cc(c34)C[C@H]21 [Pergolide Mesylate],38.3,–,–
C1CCC(C(CC2CCCCN2)C2CCCCC2)CC1 (centres unmarked) [Perhexiline Maleate],89,4.1,–
OCCN1CCN(CCCN2c3ccccc3Sc3ccc(Cl)cc32)CC1 [Perphenazine],79.3,5.8,–
COc1cc([C@@H]2c3cc4c(cc3[C@H](O)[C@H]3COC(=O)[C@H]23)OCO4)cc(OC)c1OC [Podofilox],80,1.8,–
CCC(=O)O[C@](Cc1ccccc1)(c1ccccc1)[C@H](C)CN(C)C [Propoxyphene Hydrochloride],42.2,–,–
COc1ccc(C[C@H](N)C(=O)N[C@H]2[C@@H](O)[C@H](n3cnc4c(N(C)C)ncnc43)O[C@@H]2CO)cc1 [Puromycin dihydrochloride],83.5,6.6,–
[O-][n+]1ccccc1[S-].[O-][n+]1ccccc1[S-].[Zn+2] [Pyrithione Zinc],–,–,Max Effect: 0.767
Cc1cc(/C=C/c2ccc3cc(N(C)C)ccc3[n+]2C)c(C)n1-c1ccccc1 [Pyrvinium Pamoate],80,3.4,–
C#C[C@]1(O)CC[C@H]2[C@@H]3CCc4cc(OC5CCCC5)ccc4[C@H]3CC[C@@]21C [Quinestrol],54.9,7.2,–
O=C(c1ccc(OCCN2CCCCC2)cc1)c1c(-c2ccc(O)cc2)sc2cc(O)ccc12 [Raloxifene Hydrochloride],69.1,2.4,–
COC(=O)[C@H]1[C@H]2C[C@@H]3c4[nH]c5cc(OC)ccc5c4CCN3C[C@H]2C[C@@H](OC(=O)/C=C/c2cc(OC)c(OC)c(OC)c2)[C@@H]1OC [Rescinnamine],51.2,–,–
CC(C)c1nc(CN(C)C(=O)N[C@H](C(=O)N[C@@H](Cc2ccccc2)C[C@H](O)[C@H](Cc2ccccc2)NC(=O)OCc2cncs2)C(C)C)cs1 [Ritonavir],48.5,–,–
C=C(C)[C@H]1Cc2c(ccc3c2O[C@@H]2COc4cc(OC)c(OC)cc4[C@@H]2C3=O)O1 [Rotenone],70,< 2,–
Oc1c2ccccc2c2c3c(cccc13)N=N2 [SP 600125],36.5,–,–
NC(=O)c1cn([C@@H]2O[C@H](CO)[C@@H](O)[C@H]2O)c2ncnc(N)c12 [Sangivamycin Hydrate],90,< 0.2,–
O=C([O-])O.[Na+] [Sodium Bicarbonate],–,–,Max Effect: 0.389

Compound,"Emax (Zaire ebolavirus, Vero) [%]","IC50 (Zaire ebolavirus, Vero) [µM]",other results
CNC(=O)c1cc(Oc2ccc(NC(=O)Nc3ccc(Cl)c(C(F)(F)F)c3)cc2)ccn1 [Sorafenib Tosylate],81.9,3.9,–
CCN(CC)CCNC(=O)c1c(C)[nH]c(/C=C2\C(=O)Nc3ccc(F)cc32)c1C [Sunitinib Malate],78.8,4.4,–
CC/C(=C(\c1ccccc1)c1ccc(OCCN(C)C)cc1)c1ccccc1 [Tamoxifen],90,–,–
O=C(OC[C@H]1O[C@@H](OC(=O)c2cc(O)c(O)c(OC(=O)c3cc(O)c(O)c(O)c3)c2)[C@H](OC(=O)c2cc(O)c(O)c(OC(=O)c3cc(O)c(O)c(O)c3)c2)[C@@H](OC(=O)c2cc(O)c(O)c(OC(=O)c3cc(O)c(O)c(O)c3)c2)[C@@H]1OC(=O)c1cc(O)c(O)c(OC(=O)c2cc(O)c(O)c(O)c2)c1)c1cc(O)c(O)c(OC(=O)c2cc(O)c(O)c(O)c2)c1 [Tannic Acid],54.3,–,–
CC(C)(C)c1ccc(C(O)CCCN2CCC(C(O)(c3ccccc3)c3ccccc3)CC2)cc1 (centres unmarked) [Terfenadine],91.4,6.1,–
C/C=C(/C)C(=O)O[C@H]1C(C)=C2[C@H]([C@@H]1OC(=O)CCCCCCC)[C@@](C)(OC(C)=O)C[C@H](OC(=O)CCC)[C@@]1(O)[C@H]2OC(=O)[C@@]1(C)O [Thapsigargin],70,< 0.3,–
CCSc1ccc2c(c1)N(CCCN1CCN(C)CC1)c1ccccc1S2 [Thiethylperazine Maleate],83.2,4.4,–
CSc1ccc2c(c1)N(CCC1CCCCN1C)c1ccccc1S2.Cl (centres unmarked) [Thioridazine Hydrochloride],–,–,Max Effect: 0.915; Max Effect Vero: 0.954; IC50 (read-out: IC50): 4.3 µM; IC50 (read-out: IC50 (μM) Vero): 6.2 µM
C=C(NC(=O)C(=C)NC(=O)c1csc(C2=N[C@@H]3c4csc(n4)[C@H]4NC(=O)c5csc(n5)[C@H]([C@](C)(O)[C@@H](C)O)NC(=O)[C@H]5CSC(=N5)/C(=C/C)NC(=O)[C@H]([C@@H](C)O)NC(=O)c5csc(n5)[C@]3(CC2)NC(=O)[C@H](C)NC(=O)C(=C)NC(=O)[C@H](C)NC(=O)[C@H]([C@@H](C)CC)N[C@@H]2C=Cc3c([C@H](C)O)cc(nc3[C@H]2O)C(=O)O[C@@H]4C)n1)C(N)=O [Thiostrepton],45.4,–,–
C#C[C@]1(O)CC[C@H]2[C@@H]3[C@H](C)CC4=C(CCC(=O)C4)[C@H]3CC[C@@]21C [Tibolone],112,1.2,–
Clc1ccc(C(Cn2ccnc2)OCc2ccsc2Cl)c(Cl)c1 (centres unmarked) [Tioconazole],72.9,8.5,–
O=C(O)Cc1cc(I)c(Oc2ccc(O)c(I)c2)c(I)c1 [Tiratricol],47.8,–,–
CN(C)CCOc1ccc(/C(=C(/CCCl)c2ccccc2)c2ccccc2)cc1 [Toremifene],–,–,IC50: 2.7 µM; Max Effect: 0.461
CSc1nc2cc(Cl)c(Oc3cccc(Cl)c3Cl)cc2[nH]1 [Triclabendazole],55.2,9.2,–
CN1CCN(CCCN2c3ccccc3Sc3ccc(C(F)(F)F)cc32)CC1 [Trifluoperazine Hydrochloride],95.5,5,–
CN(C)CCCN1c2ccccc2Sc2ccc(C(F)(F)F)cc21 [Triflupromazine Hydrochloride],54.1,12.1,–
CC(C)[C@]12O[C@H]1[C@@H]1O[C@]13[C@]1(O[C@H]1C[C@H]1C4=C(CC[C@@]13C)C(=O)OC4)[C@@H]2O [Triptolide],85,< 0.1,–
Fc1ccc(C(OCCN2CCN(CCCc3ccccc3)CC2)c2ccc(F)cc2)cc1 [Vanoxerine],56.4,5.8,–
Acetophenazine Maleate,–,–,Max Effect: 0.478
